Laboratory results reported in US8299214B2 (priority 2006, dated 2012).
Where two headings read alike, the source gives them in different places. Residues, ends and D or L forms follow the SMILES beside them. *: point of attachment. Stearoyl = CCCCCCCCCCCCCCCCCC(=O)*

Legend:
[1] = tested on: influenza virus A/Aichi/2/68 strain (H3N2)
[2] = tested on: influenza virus A/Puerto Rico/8/34 strain (H1N1)
[3] = read-out: IC50(μM) H3, Table 4, MDCK cells, plaque assay, H3N2
[4] = read-out: IC50(μM) H1, Table 4, MDCK cells, plaque assay, H1N1
[5] = influenza virus A/Aichi/2/68 strain
[6] = influenza virus A/Puerto Rico/8/34 strain

Compound: CCCCCCCCCCCCCCCCCC(=O)N[C@@H](C)C(=O)N[C@@H](CCCNC(=N)N)C(=O)N[C@@H](CC(C)C)C(=O)N1CCC[C@H]1C(=O)N[C@@H](CCCNC(=N)N)C(=O)N[C@H](C(=O)N[C@@H](CCSC)C(N)=O)[C@@H](C)O [C18-s2(1-7), C18-ARLPRTM] (Stearoyl-ARLPRTM-NH2)
- inhibition of H3N2 influenza virus infection (in words) ([1]; MDCK cells, plaque assay): as strongly as, or more strongly than, C18-S2 peptide
- IC50 [1, 3]: 9.1 µM
- inhibition of H1N1 influenza virus infection (in words) ([2]; MDCK cells, plaque assay): more strongly than C18-S2 peptide
- IC50 [2, 4]: 7.1 µM

Compound: CCCCCCCCCCCCCCCCCC(=O)N[C@@H](C)C(=O)N[C@@H](CCCNC(=N)N)C(=O)N[C@@H](CC(C)C)C(=O)N1CCC[C@H]1C(=O)N[C@@H](CCCNC(=N)N)C(=O)N[C@H](C(=O)N[C@@H](CCSC)C(=O)N[C@H](C(N)=O)C(C)C)[C@@H](C)O [C18-s2(1-8), C18-ARLPRTMV] (Stearoyl-ARLPRTMV-NH2)
- inhibition of H3N2 influenza virus infection (in words) ([1]; MDCK cells, plaque assay): as strongly as, or more strongly than, C18-S2 peptide
- IC50 [1, 3]: 1.4 µM
- inhibition of H1N1 influenza virus infection (in words) ([2]; MDCK cells, plaque assay): more strongly than C18-S2 peptide
- IC50 [2, 4]: 2.4 µM

Compound: CCCCCCCCCCCCCCCCCC(=O)N[C@@H](CCCNC(=N)N)C(=O)N[C@@H](CC(C)C)C(=O)N1CCC[C@H]1C(=O)N[C@@H](CCCNC(=N)N)C(=O)N[C@H](C(=O)N[C@@H](CCSC)C(=O)N[C@H](C(N)=O)C(C)C)[C@@H](C)O [C18-s2(2-8), C18-RLPRTMV] (Stearoyl-RLPRTMV-NH2)
- IC50 [1, 3]: > 100 µM
- inhibition of H1N1 influenza virus infection (in words) ([2]; MDCK cells, plaque assay): as strongly as, or more strongly than, C18-S2 peptide
- IC50 [2, 4]: 9.2 µM

Compound: CCCCCCCCCCCCCCCCCC(=O)N[C@@H](CCCNC(=N)N)C(=O)N[C@H](C(=O)N[C@@H](CCSC)C(=O)N[C@H](C(=O)N[C@@H](Cc1c[nH]cn1)C(=O)N1CCC[C@H]1C(=O)N[C@@H](CCCCN)C(N)=O)C(C)C)[C@@H](C)O [C18-s2(5-11), C18-RTMVHPK] (Stearoyl-RTMVHPK-NH2)
- IC50 [1, 5]: > 100 µM
- IC50 [2, 6]: 11 µM

Compound: CCCCCCCCCCCCCCCCCC(=O)N[C@H](C(=O)N[C@@H](Cc1c[nH]cn1)C(=O)N1CCC[C@H]1C(=O)N[C@@H](CCCCN)C(=O)N1CCC[C@H]1C(=O)N[C@@H](C)C(=O)N[C@@H](CCC(N)=O)C(=O)N1CCC[C@H]1C(N)=O)C(C)C [C18-s2(8-15), C18-VHPKPAQP] (Stearoyl-VHPKPAQP-NH2)
- IC50 [1, 5]: 10.5 µM
- IC50 [2, 6]: 59 µM

Compound: CCCCCCCCCCCCCCCCCC(=O)N1CCC[C@H]1C(=O)N[C@@H](CC(C)C)C(=O)N[C@@H](CCCNC(=N)N)C(=O)N[C@@H](C)C(N)=O [C18-s2(r1-4), C18-PLRA] (Stearoyl-PLRA-NH2)
- inhibition of H3N2 influenza virus infection (in words) ([1]; MDCK cells, plaque assay): more strongly than C18-s2 (r1-8)
- IC50 [1, 5]: 14 µM
- inhibition of H1N1 influenza virus infection (in words) ([2]; MDCK cells, plaque assay): more strongly than C18-s2 (r1-8)
- IC50 [2, 6]: 0.41 µM

Compound: CCCCCCCCCCCCCCCCCC(=O)N[C@@H](CCCNC(=N)N)C(=O)N1CCC[C@H]1C(=O)N[C@@H](CC(C)C)C(=O)N[C@@H](CCCNC(=N)N)C(=O)N[C@@H](C)C(N)=O [C18-s2(r1-5), C18-RPLRA] (Stearoyl-RPLRA-NH2)
- inhibition of H3N2 influenza virus infection (in words) ([1]; MDCK cells, plaque assay): more strongly than C18-s2 (r1-8)
- IC50 [1, 5]: 0.94 µM
- inhibition of H1N1 influenza virus infection (in words) ([2]; MDCK cells, plaque assay): more strongly than C18-s2 (r1-8)
- IC50 [2, 6]: 0.55 µM

Compound: CCCCCCCCCCCCCCCCCC(=O)N[C@H](C(=O)N[C@@H](CCSC)C(=O)N[C@H](C(=O)N[C@@H](CCCNC(=N)N)C(=O)N1CCC[C@H]1C(=O)N[C@@H](CC(C)C)C(=O)N[C@@H](CCCNC(=N)N)C(=O)N[C@@H](C)C(N)=O)[C@@H](C)O)C(C)C [C18-s2(r1-8), C18-VMTRPLRA] (Stearoyl-VMTRPLRA-NH2)
- IC50 [1, 5]: 226 µM
- IC50 [2, 6]: 93 µM
